Measurements reported in publication PMC8460535, “Novel serotonin 5-HT2A receptor antagonists derived from 4-phenylcyclohexane-5-spiro-and 5-methyl-5-phenyl-hydantoin, for use as potential antiplatelet agents” (Pharmacological Reports, 2021).
“And” between values parts separate entries of the source, which are not always exact repeats. Equal entries are not always repeated. Where two headings read alike, the source gives them in different places.

What was measured:
5-HT2A receptor = conditions: cited from earlier work
[1] = system: whole rat blood aggregation induced by collagen; test: In vitro whole rat blood aggregation induced by collagen (Multiplate); format: cell-based; conditions: collagen 1.6 μg/ml, na = not active
Protocol: (§1) In vitro aggregation assays were performed using freshly drawn whole rat blood with a Multiplate platelet function analyzer (Roche Diagnostic), the five-channel aggregometer based on measurements of electric impedance. Blood was collected from carotid arteries with a hirudin blood tube (Roche Diagnostic). 300 μl of hirudin anticoagulated blood was mixed with 300 μl prewarmed isotonic saline solution containing studied compound or vehicle (deionized water or DMSO 0.1%) and preincubated for 3 min at 37 °C with continuous stirring. Aggregation was induced by adding collagen (Hyphen-Biomed, France) (final concentration 1.6 µg/ml), 5-HT (30 µM) and sub-threshold concentration of collagen (0.8 µg/ml), 5-HT (6 µM) and sub-threshold concentration of ADP (ADP test, Roche Diagnostic), (1.6 µM). The aggregation process was recorded for 6 min. Ketanserin (ketanserin ( +) tartrate salt, Sigma-Aldrich, Germany), sarpogrelate (sarpogrelate hydrochloride, Sigma-Aldrich, Germany), and aspirin (Tocris, UK) were used as reference compounds. The Multiplate software analyzed the area under the curve (AUC) of the clotting process of each measurement and calculated the mean values. Each concentration of studied compounds was tested at least three times. The exact sample size (n value) is presented on Figs. 2–4. Concentration-inhibition curves were constructed and analyzed by non-linear curve fitting using GraphPad Prism 6.0 (GraphPad Software Inc., San Diego, CA, USA).

[2] = system: whole rat blood aggregation induced by 5-HT and collagen; test: In vitro whole rat blood aggregation induced by 5-HT and sub-threshold collagen; format: cell-based; conditions: 5-HT 30 μM and collagen 0.8 μg/ml, read-out: b (5-HT + collagen) IC50
Protocol: as §1

[3] = system: whole rat blood aggregation induced by 5-HT and ADP; set-up: method as in PMID 29111111; conditions: 5-HT 6 μM and ADP 1.6 μM, already published, read-out: c (5-HT + ADP) IC50; cited from earlier work
human 5-HT2A receptor [4] = biological target: T1, human 5-HT2A receptor (Homo sapiens, UniProt P28223); test: 5-HT2A receptor radioligand binding assay ([3H]-ketanserin, CHO-K1 membranes); conditions: read-out: Ki [nM] ± SEM
T1 construct: purchased PerkinElmer; host or cells: CHO-K1 cells, stably transfected
T1 sequence (P28223 whole entry): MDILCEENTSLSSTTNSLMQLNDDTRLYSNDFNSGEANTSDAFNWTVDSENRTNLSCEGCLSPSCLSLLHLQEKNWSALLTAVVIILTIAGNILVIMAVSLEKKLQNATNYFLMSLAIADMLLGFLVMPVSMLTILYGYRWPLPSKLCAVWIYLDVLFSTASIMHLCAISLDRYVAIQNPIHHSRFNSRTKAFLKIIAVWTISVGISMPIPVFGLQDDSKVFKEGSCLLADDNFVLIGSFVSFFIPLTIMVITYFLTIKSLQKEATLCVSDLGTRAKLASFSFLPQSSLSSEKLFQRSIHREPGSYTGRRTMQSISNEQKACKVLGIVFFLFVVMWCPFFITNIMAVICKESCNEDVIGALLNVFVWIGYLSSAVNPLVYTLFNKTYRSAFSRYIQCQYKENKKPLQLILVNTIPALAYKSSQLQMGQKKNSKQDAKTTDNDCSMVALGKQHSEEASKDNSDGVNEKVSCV
Protocol: Stock solutions of tested compounds (10 mM) were prepared in DMSO. […] Each compound was tested in eight concentrations from 10^–5 to 10^–12 M (final concentration).
Radioligand binding was performed using membranes from CHO-K1 cells stably transfected with the human 5-HT2A receptor (PerkinElmer). All assays were carried out in duplicates. Data were fitted to a one-site curve-fitting equation with Prism 6 (GraphPad Software) and Ki values were estimated from the Cheng − Prusoff equation. The full description of this assay is in Supplementary material.
Mianserin (10 μM) was used to define nonspecific binding. […] The reaction was terminated by rapid filtration through GF/B filter mate presoaked with 0.5% polyethyleneimine for 30 minutes. Ten rapid washes with 200 µl 50 mM Tris buffer (4°C, pH 7.4) were performed using automated harvester system Harvester-96 MACH III FM (Tomtec). […] Radioactivity was counted in MicroBeta2 scintillation counter (PerkinElmer).

[5] = biological target: T2, 5-HT2A receptors in rat aorta (Rattus norvegicus, UniProt P14842); test: Functional bioassay at 5-HT2A receptors in isolated rat aorta (5-HT-induced contraction); format: cell-based; conditions: single antagonist concentration, 30 min incubation, read-out: pKB ± SEM a (converted)
T2 construct: Isolated rat aorta was used to determine the antagonistic activity of studied compounds for 5HT2A-receptors; from tissue; host or cells: aortic rings of male Wistar rats, denuded of the endothelium
T2 sequence (P14842 whole entry): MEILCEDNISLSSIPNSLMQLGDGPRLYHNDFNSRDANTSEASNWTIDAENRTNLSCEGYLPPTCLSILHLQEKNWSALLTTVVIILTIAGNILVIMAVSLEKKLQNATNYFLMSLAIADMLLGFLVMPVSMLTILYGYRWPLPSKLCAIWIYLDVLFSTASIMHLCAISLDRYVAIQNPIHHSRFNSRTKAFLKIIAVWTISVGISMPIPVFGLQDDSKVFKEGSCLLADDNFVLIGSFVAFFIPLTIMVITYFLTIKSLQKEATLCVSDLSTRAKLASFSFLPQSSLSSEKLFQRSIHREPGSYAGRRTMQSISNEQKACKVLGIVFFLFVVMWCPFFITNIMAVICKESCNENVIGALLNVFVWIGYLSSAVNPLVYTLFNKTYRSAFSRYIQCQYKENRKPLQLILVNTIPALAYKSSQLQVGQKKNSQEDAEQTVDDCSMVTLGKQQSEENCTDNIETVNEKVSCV
Protocol: Isolated rat aorta was used to determine the antagonistic activity of studied compounds for 5HT2A-receptors. The male Wistar rats weighting 200–350 g were anesthetized with thiopental sodium (75 mg/kg i.p.) and the aorta was dissected and placed in a Krebs–Henseleit solution (NaCl 118 mM, KCl 4.7 mM, CaCl2 2.25 mM, MgSO4 1.64 mM, KH2PO4 1.18 mM, NaHCO3 24.88 mM, glucose 10 mM, C3H3O3Na 2.2 mM, EDTA 0.05 mM), denuded of the endothelium, cleaned of surrounding fat tissues and cut into 4-mm-long rings. The aortic rings were incubated in 30 ml chambers filled with a Krebs–Henseleit solution at 37 °C and pH 7.4 with constant oxygenation (O2/CO2, 19:1). Two stainless steel stirrups were inserted through the lumen of each aortic segment: one stirrup was attached to the bottom of the chamber and the other to an isometric FDT10-A force–displacement transducer (BIOPAC Systems, Inc., COMMAT Ltd., Turkey). The aortic rings were stretched and maintained at optimal tension of 2 g and allowed to equilibrate for 2 h.
After the equilibration period, the aortic rings were contracted to maximal tension with KCl (60 mM). The depolarizing solution KCl (60 mM) was obtained by equimolar substitution of […]. Then the cumulative concentration–response curves to 5-HT were determined in the absence and presence of antagonist. Tissues were incubated with antagonists for 30 min.
Concentration–response curves were analyzed using GraphPad Prism 6.0 software (GraphPad Software Inc., San Diego, CA, USA). […] Data are the mean ± SEM of three separate experiments. The affinity was estimated with the equation pKB = log(concentration ratio–1)-log(molar antagonist concentration), where the concentration ratio is the ratio of equi-effective agonist concentrations in the absence and in the presence of the antagonist.

human 5-HT2A receptor [6] = biological target: T1, human 5-HT2A receptor; test: Aequorin luminescence-based intracellular calcium assay in CHO cells expressing human 5-HT2A; format: cell-based; conditions: cells expressing human 5-HT2A receptors, antagonist mode vs α-methylserotonin 30 nM; read-out: pKB ± SEM b (converted)
Protocol: Tested and reference compounds were dissolved in DMSO at a concentration of 10^–2 M. Serial dilutions were prepared in 96-well microplate in assay buffer and eight to ten concentrations were tested.
A cellular aequorin-based functional assay was performed with recombinant Chinese hamster ovary cells expressing mitochondrially targeted aequorin, human G-protein-coupled receptors, and the promiscuous G protein α16 for 5-HT2A. The full description of this assay is in Supplementary materials.
A cellular aequorin-based functional assay was performed with recombinant Chinese hamster ovary cells expressing mitochondrially targeted aequorin, human G-protein-coupled receptors and the promiscuous G protein α16 for 5-HT2A. After thawing, cells were transferred to assay buffer (Dulbecco's Modified Eagle Medium/HAM’s F12 with 0.1% protease free bovine serum albumin) and centrifuged. The cell pellet was resuspended in assay buffer and coelenterazine h was added at final concentrations of 5 μM. The cells suspension was incubated at 16°C, protected from light with constant agitation for 16 h and then diluted with assay buffer to the concentration of 120,000 cells/ml. After 1 h of incubation, 50 μl of the cells suspension was dispensed using automatic injectors built into the radiometric and luminescence plate counter MicroBeta2 LumiJET (PerkinElmer, USA) into white opaque 96-well microplates preloaded with test compounds. Immediate light emission generated following calcium mobilization was recorded for 30 s. In antagonist mode, after 30 min of incubation the reference agonist was added to the above assay mix and light emission was recorded again. Final concentration of the reference agonist was equal to EC80 of α-methylserotonin (30 nM).

[7] = system: whole rat blood aggregation induced by 5-HT and ADP; test: In vitro whole rat blood aggregation induced by 5-HT and sub-threshold ADP; format: cell-based; conditions: for IC50: 5-HT 6 μM and ADP 1.6 μM, na = not active, read-out: c (5-HT + ADP) IC50
Protocol: as §1

[8] = literature values, no reference given, read-out: 5-HT2A: Ki of conventional antagonists

melting point | IC50 [2] | Ki (human 5-HT2A receptor [4]) | Kb [5] | Kb (human 5-HT2A receptor [6]) | IC50 [7] | Compound | other results
117 to 119 °C |  |  |  |  |  | CC1(c2ccccc2)NC(=O)N(CCN2CCN(C(=O)c3ccc(F)cc3)CC2)C1=O (stereo not shown) [Compound 1, 3-(2-(4-(4-Fluorobenzoyl)piperazin-1-yl)ethyl)-5-methyl-5-phenylimidazolidine-2,4-dione] | 
243 to 245 °C |  |  |  |  |  | O=C1NC2(CCC(c3ccccc3)CC2)C(=O)N1CCN1CCN(C(c2ccccc2)c2ccccc2)CC1 (stereo not shown) [Compound 8, 3-(2-(4-Benzhydrylpiperazin-1-yl)ethyl)-8-phenyl-1,3-diazaspiro[4.5]decane-2,4-dione] | 
 |  |  |  |  |  | CC1(c2ccccc2)NC(=O)N(CCCN2CCN(c3ccccc3)CC2)C1=O (stereo not shown) [compound B] | Ki (5-HT2A receptor; 5-HT2A receptors, previous studies, read-out: Ki (5-HT2A) of earlier hydantoin leads): 0.069 µM
 | 1.3 µM |  |  |  |  | O=C(c1ccc(F)cc1)C1CCN(CCn2c(=O)[nH]c3ccccc3c2=O)CC1 [Ketanserin, reference compound] | IC50 [1]: 32.1 ± 3 µM; Ki (5-HT2A receptor; [8]): 0.002 µM; IC50 [3]: 9.7 ± 2.1 µM
 | 17.4 ± 10.9 µM | 516 ± 52 nM | 0.216 µM | ~0.175 µM and 0.175 µM | 37.9 ± 6.5 µM | CC1(c2ccccc2)NC(=O)N(CCCN2CCN(c3ccccc3F)CC2)C1=O (stereo not shown) [Compound 3, 3-(3-(4-(2-Fluorophenyl)piperazin-1-yl)propyl)-5-methyl-5-phenylimidazolidine-2,4-dione] | 
203 to 205 °C |  | 2580 ± 302 nM |  |  |  | O=C(c1ccc(F)cc1)N1CCN(CCCN2C(=O)NC3(CCC(c4ccccc4)CC3)C2=O)CC1 (stereo not shown) [Compound 12, 3-(3-(4-(4-Fluorobenzoyl)piperazin-1-yl)propyl)-8-phenyl-1,3-diazaspiro[4.5]decane-2,4-dione] | 
 | 153 ± 26.4 µM | 340 ± 57 nM | 0.44 µM | 9.23 µM | 83.1 ± 8.1 µM | CC1(c2ccccc2)NC(=O)N(CCCN2CCN(c3cccc(F)c3)CC2)C1=O (stereo not shown) [Compound 4, 3-(3-(4-(3-Fluorophenyl)piperazin-1-yl)propyl)-5-methyl-5-phenylimidazolidine-2,4-dione] | 
 |  |  |  |  |  | CC(=O)Oc1ccccc1C(=O)O [Aspirin] | IC50 [1]: 14.5 ± 1.1 µM
 | 140 ± 18.9 µM | 450 ± 43.9 nM | 0.69 µM | 1.97 µM |  | CC1(c2ccccc2)NC(=O)N(CCN2CCN(C(c3ccccc3)c3ccccc3)CC2)C1=O (stereo not shown) [Compound 2, 3-(2-(4-Benzhydrylpiperazin-1-yl)ethyl)-5-methyl-5-phenylimidazolidine-2,4-dione] | inhibitory effect on ADP- and 5-HT-induced blood aggregation ([7]; at a concentration of 200 μM): did not exhibit any significant inhibitory effect
 | 91.3 ± 7.1 µM | 21 ± 1.7 nM | 0.0372 µM | 0.175 µM | 140 ± 44.6 µM | O=C1NC2(CCC(c3ccccc3)CC2)C(=O)N1CCCN1CCN(c2ccc(F)cc2)CC1 (stereo not shown) [Compound 11, 3-(3-(4-(4-Fluorophenyl)piperazin-1-yl)propyl)-8-phenyl-1,3-diazaspiro[4.5]decane-2,4-dione] | 
 |  |  |  |  |  | O=S1(=O)c2cccc3cccc(c23)N1CCCN1CCN(c2ccc(F)cc2)CC1 [fananserin, reference compound] | Ki (5-HT2A receptor; [8]): 0.00037 µM
 | 127 ± 32.7 µM | 48 ± 4.9 nM | 0.11 µM | 9.29 µM | 124 ± 36.2 µM | CC1(c2ccccc2)NC(=O)N(CCCN2CCN(c3ccc(F)cc3)CC2)C1=O (stereo not shown) [Compound 5, 3-(3-(4-(4-Fluorophenyl)piperazin-1-yl)propyl)-5-methyl-5-phenylimidazolidine-2,4-dione] | 
 | 139 ± 16.1 µM | 220 ± 19.6 nM | 0.0959 µM | 1.99 µM |  | O=C1NC2(CCC(c3ccccc3)CC2)C(=O)N1CCCN1CCN(c2ccccc2F)CC1 (stereo not shown) [Compound 9, 3-(3-(4-(2-Fluorophenyl)piperazin-1-yl)propyl)-8-phenyl-1,3-diazaspiro[4.5]decane-2,4-dione] | 
72 to 74 °C |  |  |  |  |  | CC1(c2ccccc2)NC(=O)N(CCCN2CCN(C(=O)c3ccc(F)cc3)CC2)C1=O (stereo not shown) [Compound 6, 3-(3-(4-(4-Fluorobenzoyl)piperazin-1-yl)propyl)-5-methyl-5-phenylimidazolidine-2,4-dione] | 
224 to 226 °C |  |  |  |  |  | O=C(c1ccc(F)cc1)N1CCN(CCN2C(=O)NC3(CCC(c4ccccc4)CC3)C2=O)CC1 (stereo not shown) [Compound 7, 3-(2-(4-(4-Fluorobenzoyl)piperazin-1-yl)ethyl)-8-phenyl-1,3-diazaspiro[4.5]decane-2,4-dione] | 
 | 94.3 ± 53.5 µM | 297 ± 19.9 nM | 0.501 µM |  | 119 ± 32.1 µM | O=C1NC2(CCC(c3ccccc3)CC2)C(=O)N1CCCN1CCN(c2cccc(F)c2)CC1 (stereo not shown) [Compound 10, 3-(3-(4-(3-Fluorophenyl)piperazin-1-yl)propyl)-8-phenyl-1,3-diazaspiro[4.5]decane-2,4-dione] | 
